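All cell lines were grown in 96-well plates and treated with compound for 48 hours. The concentration for 50% growth inhibition is given as GI50.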 Activity calls are given as the source filed them. Rule as the data show it: active = GI50 up to about 1.1 µM and inactive = higher.
Legend:
Assay in all cases: DTP human tumour cell line panel, 48 h
786-0 = tested on: 786-0
A498 = tested on: A498
A549 = tested on: A549
ACHN = tested on: ACHN
CAKI-1 = tested on: CAKI-1
CCRF-CEM = tested on: CCRF-CEM
COLO 205 = tested on: COLO 205
DLD-1 = tested on: DLD-1
DMS-273 = tested on: DMS-273
EKVX = tested on: EKVX
HCC 2998 = tested on: HCC 2998
HCT-116 = tested on: HCT-116
HCT-15 = tested on: HCT-15
HL-60 = tested on: HL-60
HOP-18 = tested on: HOP-18
HOP-62 = tested on: HOP-62
HOP-92 = tested on: HOP-92
HT-29 = tested on: HT-29
IGROV-1 = tested on: IGROV-1
K562 = tested on: K562
KM-20L2 = tested on: KM-20L2
KM12 = tested on: KM12
LOX IMVI = tested on: LOX IMVI
LXFL 529 = tested on: LXFL 529
M14 = tested on: M14
M19-MEL = tested on: M19-MEL
MOLT-4 = tested on: MOLT-4
Malme-3M = tested on: Malme-3M
NCI-H226 = tested on: NCI-H226
NCI-H23 = tested on: NCI-H23
NCI-H460 = tested on: NCI-H460
NCI-H522 = tested on: NCI-H522
OVCAR-3 = tested on: OVCAR-3
OVCAR-4 = tested on: OVCAR-4
OVCAR-5 = tested on: OVCAR-5
OVCAR-8 = tested on: OVCAR-8
RPMI-8226 = tested on: RPMI-8226
RXF 393 = tested on: RXF 393
RXF 631 = tested on: RXF 631
SF-268 = tested on: SF-268
SF-295 = tested on: SF-295
SF-539 = tested on: SF-539
SK-MEL-28 = tested on: SK-MEL-28
SK-MEL-2 = tested on: SK-MEL-2
SK-MEL-5 = tested on: SK-MEL-5
SN12C = tested on: SN12C
SNB-19 = tested on: SNB-19
SNB-75 = tested on: SNB-75
SNB-78 = tested on: SNB-78
SR = tested on: SR
SW-620 = tested on: SW-620
TK-10 = tested on: TK-10
U-251 = tested on: U-251
UACC-257 = tested on: UACC-257
UACC-62 = tested on: UACC-62
UO-31 = tested on: UO-31
XF498 = tested on: XF498

NCCCN(CCCN)CCCNCc1c2ccccc2c(CNCCCN(CCCN)CCCN)c2ccccc12
GI50 (786-0): 11.4 µM (inactive)
GI50 (A498): 28.2 µM (inactive)
GI50 (A549): 24.3 µM (inactive)
GI50 (ACHN): 11.7 µM (inactive)
GI50 (CAKI-1): 16.2 µM (inactive)
GI50 (CCRF-CEM): > 100 µM (inactive)
GI50 (COLO 205): 8.09 µM (inactive)
GI50 (DLD-1): 14.7 µM (inactive)
GI50 (DMS-273): 6.08 µM (inactive)
GI50 (EKVX): 12.8 µM (inactive)
GI50 (HCC 2998): 4.51 µM (inactive)
GI50 (HCT-116): 14.9 µM (inactive)
GI50 (HCT-15): 14.4 µM
GI50 (HL-60): 11.6 µM (inactive)
GI50 (HOP-18): 6.73 µM (inactive)
GI50 (HOP-62): 14.4 µM (inactive)
GI50 (HOP-92): 24.8 µM (inactive)
GI50 (HT-29): 11 µM (inactive)
GI50 (IGROV-1): 11.1 µM (inactive)
GI50 (K562): 9.42 µM (inactive)
GI50 (KM-20L2): 25.2 µM (inactive)
GI50 (KM12): 4.37 µM (inactive)
GI50 (LOX IMVI): 19.1 µM (inactive)
GI50 (LXFL 529): 10.5 µM (inactive)
GI50 (M14): 13.6 µM (inactive)
GI50 (M19-MEL): 7.59 µM (inactive)
GI50 (MOLT-4): 26.1 µM (inactive)
GI50 (Malme-3M): 8.07 µM (inactive)
GI50 (NCI-H226): 72.1 µM (inactive)
GI50 (NCI-H23): 22.5 µM (inactive)
GI50 (NCI-H460): 12 µM (inactive)
GI50 (NCI-H522): 11.6 µM (inactive)
GI50 (OVCAR-3): 19 µM (inactive)
GI50 (OVCAR-4): 17.2 µM (inactive)
GI50 (OVCAR-5): 42 µM (inactive)
GI50 (OVCAR-8): 12.4 µM (inactive)
GI50 (RPMI-8226): 3.24 µM (inactive)
GI50 (RXF 393): 21.4 µM (inactive)
GI50 (RXF 631): 16 µM (inactive)
GI50 (SF-268): 18.3 µM (inactive)
GI50 (SF-295): 12.3 µM (inactive)
GI50 (SF-539): 14.7 µM (inactive)
GI50 (SK-MEL-28): 7.16 µM (inactive)
GI50 (SK-MEL-2): 23.7 µM (inactive)
GI50 (SK-MEL-5): 4.6 µM (inactive)
GI50 (SN12C): 15.4 µM (inactive)
GI50 (SNB-19): 14.6 µM (inactive)
GI50 (SNB-75): 16.5 µM (inactive)
GI50 (SNB-78): 30.8 µM (inactive)
GI50 (SR): 35.2 µM (inactive)
GI50 (SW-620): 13.3 µM (inactive)
GI50 (TK-10): 10.8 µM (inactive)
GI50 (U-251): 16.7 µM (inactive)
GI50 (UACC-257): 13.7 µM (inactive)
GI50 (UACC-62): 7.21 µM (inactive)
GI50 (UO-31): 29.6 µM (inactive)
GI50 (XF498): 17.1 µM (inactive)

Reference: ChEMBL document CHEMBL1201862, “PubChem BioAssay data set” (2004)
